From patent EP4335840A1, “NEW CONTRAST AGENTS FOR USE IN DIAGNOSTIC IMAGING” (priority 2022, dated 2024)

Legend:
[1] = No-observed-adverse-effect level (NOAEL), intravenous bolus; conditions: mice, intravenous bolus via tail vein, dose levels up to 2.5 mmol Gd/kg bw
[2] = biological target: T1, OATP1B3 (Homo sapiens, UniProt Q9NPD5); experiment: Uptake into stable transfected OATP1B3 HEK 293 cells; format: cell-based; conditions: OATP1B3-HEK 293 cell uptake with Rifampicine
T1 sequence (Q9NPD5 1-702): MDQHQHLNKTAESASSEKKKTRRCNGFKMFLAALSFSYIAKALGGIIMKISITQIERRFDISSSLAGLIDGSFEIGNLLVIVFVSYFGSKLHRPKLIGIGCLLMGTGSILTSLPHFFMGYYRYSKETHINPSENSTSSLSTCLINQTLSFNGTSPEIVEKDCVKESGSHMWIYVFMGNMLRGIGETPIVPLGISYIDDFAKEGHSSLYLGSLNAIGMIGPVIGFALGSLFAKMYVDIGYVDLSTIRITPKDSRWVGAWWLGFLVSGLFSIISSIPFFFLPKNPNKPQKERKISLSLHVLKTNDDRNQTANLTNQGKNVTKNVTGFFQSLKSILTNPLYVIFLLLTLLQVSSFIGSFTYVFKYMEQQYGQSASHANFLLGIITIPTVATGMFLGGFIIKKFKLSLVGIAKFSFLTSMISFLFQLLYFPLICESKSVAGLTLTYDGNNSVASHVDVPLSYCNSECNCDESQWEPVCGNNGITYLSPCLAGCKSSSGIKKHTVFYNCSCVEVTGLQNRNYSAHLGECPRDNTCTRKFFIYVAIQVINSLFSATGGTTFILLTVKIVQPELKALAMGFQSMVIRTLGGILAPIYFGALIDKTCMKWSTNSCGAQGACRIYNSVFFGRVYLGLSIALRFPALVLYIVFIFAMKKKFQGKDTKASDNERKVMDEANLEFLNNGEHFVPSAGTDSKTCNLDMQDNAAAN

[3] = Complex stability (transmetallation with Zn2+, proton relaxometry); format: physicochemical; conditions: 72 hours, 2.5 mM Zn2+, 26 mM phosphate buffer, 37°C, pH 7.4; 1.41 T
Experimental: The used method is described elsewhere (Laurent S et al., Stability of MRI paramagnetic contrast media: a proton relaxometric protocol for transmetallation assessment. Invest Radiol. 2001 Feb;36(2):115-22). In brief: A solution containing 2.5 mmol/L of test compound and 2.5 mmol/L ZnCl2 in 26 mM phosphate buffer (KH2PO4 Merck; 1.09439.1000, #HC748513, pH 7,00), was incubated at 37°C over a period of at least 3 days. If test compounds are instable under these conditions, transmetallation during this test would lead to the formation of the Zn^2+ complex of the test item, while Gd^3+ is released and precipitated as highly insoluble GdPO4.
After 3d of incubation T1 relaxation time was observed. […] Table 2: Transmetallation stability [%] of paramagnetic contrast agents over 72 hours (2.5 mM Zn2+, 26 mM phosphate buffer, 37°C, pH 7.4).

[4] = biological target: T2, OATP1B1 (Homo sapiens, UniProt Q9Y6L6); experiment: Uptake into stable transfected OATP1B1 HEK 293 cells; format: cell-based; conditions: OATP1B1-HEK 293 cell uptake with Rifampicine
T2 sequence (Q9Y6L6 1-691): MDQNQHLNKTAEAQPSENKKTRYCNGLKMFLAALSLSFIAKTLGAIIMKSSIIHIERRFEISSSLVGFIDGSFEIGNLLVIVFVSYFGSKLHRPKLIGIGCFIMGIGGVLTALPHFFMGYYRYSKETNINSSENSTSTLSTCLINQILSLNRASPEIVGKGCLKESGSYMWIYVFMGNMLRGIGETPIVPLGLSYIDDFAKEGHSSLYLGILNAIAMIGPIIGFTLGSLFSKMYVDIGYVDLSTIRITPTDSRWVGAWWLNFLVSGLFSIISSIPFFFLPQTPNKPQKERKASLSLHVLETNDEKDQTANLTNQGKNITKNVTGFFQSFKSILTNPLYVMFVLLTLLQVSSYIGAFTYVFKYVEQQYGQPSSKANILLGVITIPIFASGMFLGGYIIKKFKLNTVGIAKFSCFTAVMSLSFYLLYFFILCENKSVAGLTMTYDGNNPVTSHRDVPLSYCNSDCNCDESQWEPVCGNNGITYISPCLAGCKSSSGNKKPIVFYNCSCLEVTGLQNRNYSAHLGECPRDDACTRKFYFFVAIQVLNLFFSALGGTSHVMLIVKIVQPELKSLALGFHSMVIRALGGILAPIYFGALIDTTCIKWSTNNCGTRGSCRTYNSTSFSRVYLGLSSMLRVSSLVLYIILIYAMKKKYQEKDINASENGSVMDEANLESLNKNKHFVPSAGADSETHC

[5] = Water solubility in aqueous buffer; format: physicochemical; conditions: aqueous buffer 10 mM Tris-HCl, pH 7.4, 20°C; Gd by ICP-MS
Experimental: The exploratory water solubility of the compounds is determined at room temperature (20°C) in 0.5 mL buffer solution (10 mM Tris-HCI, pH 7.4) in the microcentrifuge tubes (Eppendorf, 2.0 mL safe-lock caps). The solid compounds were added stepwise to the buffer solution. More substance is added once all the suspended material is dissolved until an equilibrium between undissolved and dissolved substance is reached. The suspension was mixed using a shaker (Heidolph Reax 2000) and treated 5 min in an ultrasound bath (Bandelin, Sonorex Super RK255H). The Gadolinium concentration of the test substance in the clear solution is measured by ICP-MS. Table 1: Solubilities of compounds in aqueous buffer at 20°C (pH 7.4).

[6] = Relaxivity measurements at 1.41 T in water and human plasma; format: physicochemical; conditions: 37°C, normalized to Gd
Experimental: Relaxivity measurements at 1.41 T were performed using a MiniSpec mq60 spectrometer (Bruker Analytik, Karlsruhe, Germany) operating at a resonance frequency of 60 MHz and a temperature of 37°C. The T1 relaxation times were determined using the standard inversion recovery (IR) method with a fixed relaxation delay of at least 5 × T1. The variable inversion time (TI) was calculated automatically by the standard software of the MiniSpec mq60 (8 steps). The T2 measurements were performed by using a Carr-Purcell-Meiboom-Gill (CPMG) pulse sequence, applying a relaxation delay of at least 5 × T1.
Each relaxivity measurement was performed using three different Gd concentrations (3 concentrations between 0.05 and 2 mM). The T1 and T2 relaxation times of the example compounds 1 to 10 were measured in different media for example in water and human plasma. Human plasma preparation: For each experiment fresh blood was taken from a volunteer using 10 mL citrate-tubes (Sarstedt S-Monovette 02.1067.001, 10 mL, Citrate). The 10 mL citrate-tubes were carefully inverted 10 times to mix blood and anticoagulant and centrifuged for 15min at 1811 g at RT (Eppendorf, Centrifuge 5810R).
The relaxivities ri (where i=1, 2) were calculated based on the measured relaxation rates Ri in water and plasma: ri = (Ri−Ri(0))/CGd [formula] where Ri(0) represent the relaxation rate of the respective solvent and CGd the concentration of the compound normalized to the Gadolinium. The Gadolinium concentrations of the investigated solutions were verified by Inductively Coupled Plasma Mass Spectrometry (ICP-MS Agilent 7500a, Waldbronn, Germany). Table 3: Relaxivities of investigated compounds in water and human plasma at 1.41 T and relaxivities of Reference compounds 1-3 (RC1-RC3) at 1.5 T in water and bovine plasma. All values are measured at 37°C and normalized to Gd and given in L mmol-1 s-1.

[7] = tested on: freshly isolated rat hepatocytes; experiment: Uptake into freshly isolated rat hepatocytes; conditions: rat hepatocyte uptake with OATP1B1/1B3 inhibitor Rifampicine, test item and inhibitor each 100 µM
Experimental: The rat hepatocytes were incubated (2.5 ·10^5 cells/well) for 2.5 to 4h in collagen coated 24-well plates (Fa. Beckton Dickinson Biocoat, cell environments, Collagen I Cellware) in Williams E-medium (Fa. Sigma W1878) in an incubator (37°C, 5% CO2 and 95% oxygen). After incubation the adherent hepatocytes were washed once with 37°C Hepes carbonate transport buffer (500 µL/well). The test items and RC1 were prepared from stock solutions (180 to 500 mM concentration) in Hepes carbonate transport buffer at pH 7.4 to reach a final concentration of 100 µmοl Gd/L. The specific uptake of the test item or RC1 into rat hepatocytes via OATP1 B1 and OATP1 B3 was challenged using a known OATP1B1/1B3 inhibitor (Rifampicine, Fa. Sigma R3501, test item and inhibitor 1:1 each 100 µM final concentration). The prepared rat hepatocyte plates were incubated with test solutions (500 µL/well) at 37°C for 10 min using a thermoshaker (Fa. Grant Bio, PHMP). Triplicates were performed for each test item. After incubating the cells were washed once with cold PBS buffer (Fa. Gibco, Dulbeccos PBS (+)). After washing the intact hepatocytes were lysed by addition of 500 µL cold 0.01 % Triton-X 100 in Millipore water for 1h. […] After 1h 500 µL of 10 nM Terbium ICP-MS standard was added in 2% nitric acid and 0.01% Triton 100 before the Gadolinium concentrations in the lysate were measured using ICP-MS (Agilent 8900, singleQuad, integr. Time 0.3 s, no gas, 5 replicates, Gd m/z 157, Tb m/z 159). As a reference standard RC1 is used in the same well plate. The hepatocyte uptake of the test compound is calculated relative to RC1 (resulting in the unit % of RC1).

For `CCOc1ccc(CC2CN(CC(=O)[O-])CCN(CC(=O)[O-])CCN(CC(=O)O)CCN2CC(=O)[O-])cc1.[Gd+3]` (centres unmarked) [Example 7, Gadolinium-2,2',2"-[10-(carboxymethyl)-2-(4-ethoxybenzyl)-1,4,7,10-tetraazacyclododecane-1,4,7-triyl]triacetate], the NOAEL [1] was 1.50 mmol Gd/kg bw, the “Inhibition Rifampicine” value [2] was 95 % inhibition and the “Stability (transmetallation stability, T1 relaxation rates R1n/R10)” value [3] was 98%. For the same molecule, the “Inhibition Rifampicine” value [4] was 78 % inhibition, the Solubility [5] was greater than 403 mM and the r1 human plasma ([6]; human plasma) was 6.2 L/mmol/s. The r1 water ([6]; water) was 4.5 L/mmol/s and the “Inhibition Rifampicine” value [7] was 96 % inhibition.
